This note sets out measurements from US7338950B2, “Amide compounds as ion channel ligands and uses thereof” (Renovis, Inc., priority 2003, dated 2008).

Structures are written as SMILES.

For this assay, the system named is VR1 receptor (293 cells expressing capsaicin-insensitive VR1 receptor variants). The assay can be described thus: High throughput screening of VR1 antagonists using a calcium imaging assay (Fura2, pH 5.1 stimulus).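 Also: Fura2 ratiometric fluorescence read every 4 s over 3 min, response taken as peak ratio minus baseline before pre-treatment, compound pre-treatment preceding acid challenge.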 As to conditions: 1 uM compound; inhibition of calcium ion influx.
Source text: A dual wavelength ratiometric dye, Fura2, was used as an indicator of relative levels of calcium ions in a 96 well format using a bench top scanning fluorometer with integrated fluidics and temperature control (Flex Station, Molecular Devices).
A dual wavelength ratiometric dye, Fura2, was used as an indicator of relative levels of [Ca2+] in a 96 well format using a bench top scanning fluorometer with integrated fluidics and temperature control (Flex Station, Molecular Devices).
293 cells were grown on PDL coated 96-well black-walled plates, in the presence of a DMEM medium containing 5% Penstrep, 5% Glutamax, 200 ug/mL Hygromycin, 5 μg/mL Blasticide and 10% heat inactivated FBS. Prior to assay, the cells were loaded with 5 μg/mL Fura2 in normal saline solution at 37° C. for 40 minutes. Cells were then washed with normal saline to remove the dye.
The assay consists of two stages; a pre-treatment phase followed by a treatment phase.
50 μl of a compound solution was added to the cells (Pre-treatment). Immediately following, 50 μl of the test compound in a saline solution at pH 5.1 was added. […] Changes in wavelength measurements were made throughout the course of the experiment in 4 second intervals over a period of 3 minutes. Responses were measured as peak fluorescence ratio after test compound addition minus baseline fluorescence ratio prior to pre-treatment and were calculated using SoftMaxPro softwareData were expressed as percentage inhibition calculated using Excel as follows:
Regarding `COc1cc(C(=O)Nc2cc(OC)c(OC)c(OC)c2)ccc1-c1ncccc1Cl` [Compound 1263], the “% Inhibition @ 1 uM” value is “++++ (compound exhibited 75% or greater inhibition of calcium ion influx induced by capsaicin stimulation)”. Under `COc1cc(C(=O)Nc2ccc3cn[nH]c3c2)ccc1-c1ncccc1Cl` [Compound 1264] stands “++ (compound exhibited 25-50% inhibition of calcium ion influx induced by capsaicin stimulation)”.

Regarding `COc1cc(C(=O)Nc2ccc(C#N)c(Cl)c2)ccc1-c1ncccc1Cl` [Compound 1265], the “% Inhibition @ 1 uM” value is “++++ (compound exhibited 75% or greater inhibition of calcium ion influx induced by capsaicin stimulation)”. Turning to `COc1cc(C(=O)Nc2cccc(C(F)(F)F)c2)ccc1-c1ncccc1Cl` [Compound 1267], the “% Inhibition @ 1 uM” value is “++ (compound exhibited 25-50% inhibition of calcium ion influx induced by capsaicin stimulation)”. As to `COc1cc(C(=O)Nc2cccc(OC(F)(F)F)c2)ccc1-c1ncccc1Cl` [Compound 1269], the “% Inhibition @ 1 uM” value was “+ (compound exhibited 0-25% inhibition of calcium ion influx induced by capsaicin stimulation)”.

`COc1cc(C(=O)Nc2cccc(OC(C)C)c2)ccc1-c1ncccc1Cl` [Compound 1270]: the “% Inhibition @ 1 uM” value was “+ (compound exhibited 0-25% inhibition of calcium ion influx induced by capsaicin stimulation)”. The same measure for `COc1cc(C(=O)Nc2ccc(F)c(F)c2)ccc1-c1ncccc1Cl` [Compound 1271]: “+++ (compound exhibited 50-75% inhibition of calcium ion influx induced by capsaicin stimulation)”; for `CCOc1ccc(NC(=O)c2ccc(-c3ncccc3Cl)c(OC)c2)cc1` [Compound 1273]: “+ (compound exhibited 0-25% inhibition of calcium ion influx induced by capsaicin stimulation)”; for `COc1cc(C(=O)Nc2ccc(OC)c(C(F)(F)F)c2)ccc1-c1ncccc1Cl` [Compound 1275]: “++ (compound exhibited 25-50% inhibition of calcium ion influx induced by capsaicin stimulation)”. Regarding `COc1cc(C(=O)Nc2ccc(N3CCOCC3)c(Cl)c2)ccc1-c1ncccc1Cl` [Compound 1276], the “% Inhibition @ 1 uM” value was “+ (compound exhibited 0-25% inhibition of calcium ion influx induced by capsaicin stimulation)”. The same measure for `COc1cc(C(=O)Nc2ccc(-c3cnco3)cc2)ccc1-c1ncccc1Cl` [Compound 1277]: “+++ (compound exhibited 50-75% inhibition of calcium ion influx induced by capsaicin stimulation)”; for `COc1cc(C(=O)Nc2ccc(Cl)cc2S(=O)(=O)O)ccc1-c1ncccc1Cl` [Compound 1278]: “+ (compound exhibited 0-25% inhibition of calcium ion influx induced by capsaicin stimulation)”; for `CCN(CC)CCOC(=O)c1ccc(NC(=O)c2ccc(-c3ncccc3Cl)cc2)cc1` [Compound 1282]: “+ (compound exhibited 0-25% inhibition of calcium ion influx induced by capsaicin stimulation)”. Regarding `CCOC(=O)c1cccc(NC(=O)c2ccc(-c3ncccc3Cl)cc2)c1` [Compound 1286], the “% Inhibition @ 1 uM” value is reported as “+ (compound exhibited 0-25% inhibition of calcium ion influx induced by capsaicin stimulation)”.

Take `COc1ccc(NC(=O)c2ccc(-c3ncccc3Cl)cc2)cc1O` [Compound 1288]: the “% Inhibition @ 1 uM” value is “+ (compound exhibited 0-25% inhibition of calcium ion influx induced by capsaicin stimulation)”.

`O=C(Nc1ccc2cn[nH]c2c1)c1ccc(-c2ncccc2Cl)cc1` [Compound 1290]: the “% Inhibition @ 1 uM” value is “++ (compound exhibited 25-50% inhibition of calcium ion influx induced by capsaicin stimulation)”. Under `CCCOc1ccc(NC(=O)c2ccc(-c3ncccc3Cl)cc2)cc1` [Compound 1291] stands “+ (compound exhibited 0-25% inhibition of calcium ion influx induced by capsaicin stimulation)”.

As to `O=C(Nc1ccc(OC(F)(F)F)cc1)c1ccc(-c2ncccc2Cl)cc1` [Compound 1293], the “% Inhibition @ 1 uM” value is reported as “+ (compound exhibited 0-25% inhibition of calcium ion influx induced by capsaicin stimulation)”.

For the compound `O=C(Nc1cccc(OC(F)(F)F)c1)c1ccc(-c2ncccc2Cl)cc1` [Compound 1294], the “% Inhibition @ 1 uM” value is reported as “+ (compound exhibited 0-25% inhibition of calcium ion influx induced by capsaicin stimulation)”. Regarding `CC(C)Oc1cccc(NC(=O)c2ccc(-c3ncccc3Cl)cc2)c1` [Compound 1295], the “% Inhibition @ 1 uM” value is on record as “+ (compound exhibited 0-25% inhibition of calcium ion influx induced by capsaicin stimulation)”. As to `O=C(Nc1ccc(F)c(F)c1)c1ccc(-c2ncccc2Cl)cc1` [Compound 1296], the “% Inhibition @ 1 uM” value is given as “+ (compound exhibited 0-25% inhibition of calcium ion influx induced by capsaicin stimulation)”. Under `CCOc1ccc(NC(=O)c2ccc(-c3ncccc3Cl)cc2)cc1` [Compound 1298] stands “+ (compound exhibited 0-25% inhibition of calcium ion influx induced by capsaicin stimulation)”; under `O=C(Nc1ccc(N2CCOCC2)c(Cl)c1)c1ccc(-c2ncccc2Cl)cc1` [Compound 1301], “+++ (compound exhibited 50-75% inhibition of calcium ion influx induced by capsaicin stimulation)”. The same measure for `CN1CCCc2ccc(NC(=O)c3ccc(-c4ncccc4Cl)cc3)cc21` [Compound 1304]: “+ (compound exhibited 0-25% inhibition of calcium ion influx induced by capsaicin stimulation)”; for `O=C(Nc1ccccc1)c1ccc(-c2ncccc2Cl)cn1` [Compound 1306]: “++++ (compound exhibited 75% or greater inhibition of calcium ion influx induced by capsaicin stimulation)”; for `O=C(Nc1ccc(F)cc1)c1ccc(-c2ncccc2Cl)cn1` [Compound 1308]: “+ (compound exhibited 0-25% inhibition of calcium ion influx induced by capsaicin stimulation)”. Consider `N#Cc1ccccc1NC(=O)c1ccc(-c2ncccc2Cl)cn1` [Compound 1309], for which the “% Inhibition @ 1 uM” value is “+ (compound exhibited 0-25% inhibition of calcium ion influx induced by capsaicin stimulation)”. As for `O=C(Nc1ccccc1Cl)c1ccc(-c2ncccc2Cl)cn1` [Compound 1314], the “% Inhibition @ 1 uM” value is recorded as “++++ (compound exhibited 75% or greater inhibition of calcium ion influx induced by capsaicin stimulation)”. `N#Cc1cccc(NC(=O)c2ccc(-c3ncccc3Cl)cn2)c1` [Compound 1316]: the “% Inhibition @ 1 uM” value is given as “++++ (compound exhibited 75% or greater inhibition of calcium ion influx induced by capsaicin stimulation)”.

With `CCCCc1ccc(NC(=O)c2ccc(-c3ncccc3Cl)cn2)cc1` [Compound 1319], the “% Inhibition @ 1 uM” value is “+++ (compound exhibited 50-75% inhibition of calcium ion influx induced by capsaicin stimulation)”. The same measure for `O=C(Nc1ccc(C2CCCCC2)cc1)c1ccc(-c2ncccc2Cl)cn1` [Compound 1320]: “++++ (compound exhibited 75% or greater inhibition of calcium ion influx induced by capsaicin stimulation)”; for `O=C(Nc1ccc(C(F)(F)F)cc1)c1ccc(-c2ncccc2Cl)cn1` [Compound 1325]: “+ (compound exhibited 0-25% inhibition of calcium ion influx induced by capsaicin stimulation)”.

Take `COc1cc(NC(=O)c2ccc(-c3ncccc3Cl)cn2)cc(C(F)(F)F)c1` [Compound 1328]: the “% Inhibition @ 1 uM” value is “+ (compound exhibited 0-25% inhibition of calcium ion influx induced by capsaicin stimulation)”. `Cc1cc(C)nc(NC(=O)c2ccc(-c3ncccc3Cl)cn2)c1` [Compound 1329]: the “% Inhibition @ 1 uM” value was “+ (compound exhibited 0-25% inhibition of calcium ion influx induced by capsaicin stimulation)”. The same measure for `O=C(Nc1ccncc1)c1ccc(-c2ncccc2Cl)cn1` [Compound 1330]: “+++ (compound exhibited 50-75% inhibition of calcium ion influx induced by capsaicin stimulation)”; for `O=C(Nc1ccc(N2CCOCC2)cc1)c1ccc(-c2ncccc2Cl)cn1` [Compound 1334]: “+ (compound exhibited 0-25% inhibition of calcium ion influx induced by capsaicin stimulation)”.

Consider `Cc1ccnc(NC(=O)c2ccc(-c3ncccc3Cl)cn2)c1` [Compound 1335], for which the “% Inhibition @ 1 uM” value is on record as “+ (compound exhibited 0-25% inhibition of calcium ion influx induced by capsaicin stimulation)”. The same measure for `O=C(Nc1ccncn1)c1ccc(-c2ncccc2Cl)cn1` [Compound 1336]: “++++ (compound exhibited 75% or greater inhibition of calcium ion influx induced by capsaicin stimulation)”; for `COc1ccc(NC(=O)c2ccc(-c3ncccc3Cl)cn2)cn1` [Compound 1341]: “++ (compound exhibited 25-50% inhibition of calcium ion influx induced by capsaicin stimulation)”; for `O=C(Nc1ccnc(Cl)c1)c1ccc(-c2ncccc2Cl)cn1` [Compound 1342]: “+ (compound exhibited 0-25% inhibition of calcium ion influx induced by capsaicin stimulation)”. As to `Cc1cc(NC(=O)c2ccc(-c3ncccc3Cl)cn2)nc(C)n1` [Compound 1343], the “% Inhibition @ 1 uM” value was “+ (compound exhibited 0-25% inhibition of calcium ion influx induced by capsaicin stimulation)”.

Regarding `O=C(Nc1ccc2ncccc2c1)c1ccc(-c2ncccc2Cl)cn1` [Compound 1344], the “% Inhibition @ 1 uM” value is listed as “+ (compound exhibited 0-25% inhibition of calcium ion influx induced by capsaicin stimulation)”.

Turning to `CCn1c2ccccc2c2cc(NC(=O)c3ccc(-c4ncccc4Cl)cn3)ccc21` [Compound 1345], the “% Inhibition @ 1 uM” value is reported as “++++ (compound exhibited 75% or greater inhibition of calcium ion influx induced by capsaicin stimulation)”.

Regarding `O=C(Nc1ccc2ccccc2c1)c1ccc(-c2ncccc2Cl)cn1` [Compound 1348], the “% Inhibition @ 1 uM” value is reported as “++ (compound exhibited 25-50% inhibition of calcium ion influx induced by capsaicin stimulation)”.

With `O=C(Nc1ccc(OCc2ccccc2)cc1)c1ccc(-c2ncccc2Cl)cn1` [Compound 1349], the “% Inhibition @ 1 uM” value is given as “+ (compound exhibited 0-25% inhibition of calcium ion influx induced by capsaicin stimulation)”. The same measure for `CCOC(=O)c1ccc(NC(=O)c2ccc(-c3ncccc3Cl)cn2)cc1` [Compound 1350]: “+ (compound exhibited 0-25% inhibition of calcium ion influx induced by capsaicin stimulation)”; for `COc1ccc(NC(=O)c2ccc(-c3ncccc3Cl)cn2)cc1O` [Compound 1355]: “++ (compound exhibited 25-50% inhibition of calcium ion influx induced by capsaicin stimulation)”.
